This is an account of results in patent US20070117818A1, “Pyrimidinone compounds useful as kinase inhibitors” (priority 2004, published 2007).

Each structure is given as a SMILES string.

The experiment addresses T1, hYAK3 (Homo sapiens, UniProt O43781).
T1 construct: made in house; host or cells: baculovirus expression system in Sf9 cells
T1 sequence (O43781 124-526): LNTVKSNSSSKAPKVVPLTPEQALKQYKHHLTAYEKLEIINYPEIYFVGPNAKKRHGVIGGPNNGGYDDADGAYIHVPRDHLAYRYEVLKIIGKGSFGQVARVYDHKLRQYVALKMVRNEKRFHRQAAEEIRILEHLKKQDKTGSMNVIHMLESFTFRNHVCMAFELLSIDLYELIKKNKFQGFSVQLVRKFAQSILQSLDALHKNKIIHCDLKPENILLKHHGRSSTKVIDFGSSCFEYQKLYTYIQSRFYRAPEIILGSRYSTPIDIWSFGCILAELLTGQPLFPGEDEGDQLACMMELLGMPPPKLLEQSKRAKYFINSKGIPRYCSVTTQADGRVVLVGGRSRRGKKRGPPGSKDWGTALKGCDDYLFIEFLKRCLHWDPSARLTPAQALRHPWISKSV
As to the kind of experiment: YAK3 Scintillation Proximity Assay using Ser164 of myelin basic protein as phosphoacceptor (kinase assay of purified hYAK3). Format: biochemical. The conditions noted are these: purified GST-hYak3-His6 (aa 124-526), 0.001 mM ATP, 4 μM Ser164 peptide, 2 hours at room temperature; pIC50 = −log10(IC50). The method, then: Substrate phosphorylation assays were carried out as follows:
YAK3 Scintillation Proximity Assays Using Ser164 of Myelin Basic Protein as the phosphoacceptor
The source of Ser164 substrate oeptide The biotinylated Ser164, S164A peptide (Biotinyl-LGGRDSRAGS*PMARR-OH), sequence derived from the C-terminus of bovine myelin basic protein (MBP) with Ser162 substituted as Ala162, was purchased from California Peptide Research Inc. (Napa, Calif.), and its purity was determined by HPLC. Phosphorylation occurs at position 164 (marked S* above). The calculated molecular mass of the peptide was 2166 dalton. Solid sample was dissolved at 10 mM in DMSO, aliquoted, and stored at −20° C. until use.
hYAK3: Glutathione-S-Transferase (GST)-hYak3-His6 containing amino acid residues 124-526 of human YAK3 (aa 124-526 of SEQ ID NO 2. in U.S. Pat. No. 6,323,318) was purified from baculovirus expression system in Sf9 cells using Glutathione Sepharose 4B column chromatography followed by Ni-NTA-Agarose column chromatography. Purity greater than 65% typically was achieved. Samples, in 50 mM Tris, 150 mM NaCl, 10% glycerol, 0.1% Triton, 250 mM imidazole, 10 mM β-mercapto ethanol, pH 8.0. were stored at −80° C. until use.
Kinase assay of purified hYAK3: Assays were performed in 96 well (Costar, Catalog No. 3789) or 384 well plates (Costar, Catalog No. 3705). Reaction (in 20, 25, or 40 μl volume) mix contained in final concentrations 25 mM Hepes buffer, pH 7.4; 10 mM MgCl2; 10 mM β-mercapto ethanol; 0.0025% Tween-20; 0.001 mMATP, 0.1 μCi of [γ-^33P]ATP; purified hYAK3 (7-14 ng/assay; 4 nM final); and 4 μM Ser164 peptide. Compounds, titrated in DMSO, were evaluated at concentrations ranging from 50 μM to 0.5 nM. […] Reactions were incubated for 2 hours at room temperature and were stopped by a 75 ul addition of 0.19 μg Streptavidin Scintillation Proximity beads (Amersham Pharmacia Biotech, Catalog No. RPNQ 0007) in PBS, pH 7.4, 10 mM EDTA, 0.1% Triton X-100, 1 mM ATP. Under the assay conditions defined above, the Km(apparent) for ATP was determined to be 7.2+-2.4 μM.
In general terms: In a scintillation proximity assay essentially only radioactivity close to the scintillant gives light.
As to `NS(=O)(=O)c1cccc(Nc2nc(-c3ccc4nc(NC(=O)c5cccs5)[nH]c4c3)cc(=O)[nH]2)c1` [Ig, N-[5-(2-{[3-(Aminosulfonyl)phenyl]amino}-6-oxo-1,6-dihydro-4-pyrimidinyl)-1H-benzimidazol-2-yl]-2-thiophenecarboxamide], the 50% inhibitory concentration (IC50) (in general, the midpoint of a concentration-inhibition curve) is 0.00102 to 0.01 µM.

`COCCNc1nc(-c2ccc3nc(NC(=O)c4cccs4)[nH]c3c2)cc(=O)[nH]1` [Il, N-[5-(2-{[2-(Methyloxy)ethyl]amino}-6-oxo-1,6-dihydro-4-pyrimidinyl)-1H-benzimidazol-2-yl]-2-thiophenecarboxamide] had an IC50 of 0.0102 to 0.1 µM.

`O=C(Nc1nc2ccc(-c3cc(=O)[nH]c(NCCc4ccc(Cl)cc4Cl)n3)cc2[nH]1)c1cccs1` [Ip, N-[5-(2-{[2-(2,4-Dichlorophenyl)ethyl]amino}-6-oxo-1,6-dihydro-4-pyrimidinyl)-1H-benzimidazol-2-yl]-2-thiophenecarboxamide] showed an IC50 of 0.102 to 1 µM.
